Source: patent US20170122958A1, “Enzymes Functional Probes” (University of Dundee, priority 2013, published 2017)

Assays:
Brd2(1) = target: T1, Brd2(1) (Homo sapiens, UniProt P25440); experiment: DSF thermal shift; assay type: binding; conditions: wild type
T1 construct: Plasmids of the eight single BET bromodomain constructs Brd2(1), Brd2(2), Brd3(1), Brd3(2); His6 (N); made in house; host or cells: E. coli BL21(DE3)
Protocol: (§1) DSF assays were performed on a LightCycler®480 from Roche or a Mx3005P Real Time PCR machine from Stratagene. […] SYPRO®Orange from Invitrogen Molecular Probes® was used as a reporter dye to monitor the denaturing process of the proteins. Samples were assayed on a 96-well plate with final protein concentrations of 2 μM for the LightCycler®480 and 6 μM for Mx3005P. Compounds were added at a final concentration of 10 μM for the LightCycler®480 and 30 μM for Mx3005P, while the tetra acetylated histone peptide was added to a final concentration of 100 μM and 300 μM respectively. […] The temperature was raised with a step of 0.6° C. per minute from 37° C. to 95° C. with the LightCycler®480 collecting 39 measurements per ° C., and 1° C. per minute from 25° C. to 95° C. with Mx3005P, collecting fluorescence readings at the end of each interval. Each sample was run in triplicates.
(§2) Collected data was analysed by IGOR Pro 6, a scientific software tool from Wave Metrics, Inc. Analysis was done following the recommendations of Niesen et al.. Fluorescence intensity was plotted as a function of temperature, generating a sigmoidal curve described by a two-state transition from folded to unfolded protein. Curves were fitted by the following sigmoidal equation: […]
(§3) A1 and A2 are the values of minimum and maximum intensities, respectively, x0 is the inflection point and dx is the rate. Fitted curves were differentiated in IGOR Pro 6 and the maximum of the first derivative was identified using the same program. These values correspond to the inflection points of the transition curves and thus to the melting temperatures of the proteins (Tm).

Brd2(2) = target: T2, Brd2(2) (Homo sapiens, UniProt P25440); experiment: DSF thermal shift; assay type: binding; conditions: wild type
T2 construct: Plasmids of the eight single BET bromodomain constructs Brd2(1), Brd2(2), Brd3(1), Brd3(2); His6 (N); made in house; host or cells: E. coli BL21(DE3)
T2 sequence (P25440 344-453 limits assumed): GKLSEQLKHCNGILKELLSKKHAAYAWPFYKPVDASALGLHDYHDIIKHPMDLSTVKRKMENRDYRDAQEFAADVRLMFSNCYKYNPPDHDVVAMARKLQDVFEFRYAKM
Protocol: as §1, §2, §3

Brd2(1) Leu110-Ile = Brd2(1) Leu110-Ile (Homo sapiens, UniProt P25440, L110I); experiment: DSF thermal shift; assay type: binding; parameters: Plasmids of the eight single BET bromodomain constructs Brd2(1), Brd2(2), Brd3(1), Brd3(2); His6 (N); made in house; host or cells: E. coli BL21(DE3); conditions: mutant
Sequence of Brd2(1) Leu110-Ile (P25440 74-180 L110I limits assumed): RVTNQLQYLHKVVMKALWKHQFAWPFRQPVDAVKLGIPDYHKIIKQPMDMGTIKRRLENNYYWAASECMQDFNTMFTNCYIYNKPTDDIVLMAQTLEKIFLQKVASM
Protocol: as §1, §2, §3

Brd2(1)*(Leu110-Ala) = Brd2(1)*(Leu110-Ala) (Homo sapiens, UniProt P25440, L110A); experiment: DSF thermal shift; assay type: binding; parameters: Plasmids of the eight single BET bromodomain constructs Brd2(1), Brd2(2), Brd3(1), Brd3(2); His6 (N); made in house; host or cells: E. coli BL21(DE3); conditions: mutant
Sequence of Brd2(1)*(Leu110-Ala) (P25440 74-180 L110A limits assumed): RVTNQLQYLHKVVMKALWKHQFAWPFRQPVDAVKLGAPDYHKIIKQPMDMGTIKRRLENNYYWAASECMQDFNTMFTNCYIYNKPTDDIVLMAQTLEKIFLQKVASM
Protocol: as §1, §2, §3

Brd2(2) Leu383-Ile = Brd2(2) Leu383-Ile (Homo sapiens, UniProt P25440, L383I); experiment: DSF thermal shift; assay type: binding; parameters: Plasmids of the eight single BET bromodomain constructs Brd2(1), Brd2(2), Brd3(1), Brd3(2); His6 (N); made in house; host or cells: E. coli BL21(DE3); conditions: mutant
Sequence of Brd2(2) Leu383-Ile (P25440 344-453 L383I limits assumed): as the sequence (P25440 344-453 limits assumed) above, with L40I counted along it
Protocol: as §1, §2, §3

Brd2(2)*(Leu383-Ala) = Brd2(2)*(Leu383-Ala) (Homo sapiens, UniProt P25440, L383A); experiment: DSF thermal shift; assay type: binding; parameters: Plasmids of the eight single BET bromodomain constructs Brd2(1), Brd2(2), Brd3(1), Brd3(2); His6 (N); made in house; host or cells: E. coli BL21(DE3); conditions: mutant
Sequence of Brd2(2)*(Leu383-Ala) (P25440 344-453 L383A limits assumed): as the sequence (P25440 344-453 limits assumed) above, with L40A counted along it
Protocol: as §1, §2, §3

Brd4(1) = target: T3, Brd4(1) (Homo sapiens, UniProt O60885); experiment: DSF thermal shift; assay type: binding; conditions: wild type
T3 construct: Plasmids of the eight single BET bromodomain constructs Brd2(1), Brd2(2), Brd3(1), Brd3(2), Brd4(1), Brd4(2), Brdt(1) and Brdt(2); His6 (N); made in house; host or cells: E. coli BL21(DE3)
Protocol: as §1, §2, §3

Brd4(2) = target: T4, Brd4(2) (Homo sapiens, UniProt O60885); experiment: DSF thermal shift; assay type: binding; conditions: wild type
T4 construct: Plasmids of the eight single BET bromodomain constructs Brd2(1), Brd2(2), Brd3(1), Brd3(2), Brd4(1), Brd4(2), Brdt(1) and Brdt(2); His6 (N); made in house; host or cells: E. coli BL21(DE3)
Protocol: as §1, §2, §3

[1] = test system: Brd2(1) and (2) wild type and leucine to alanine, valine and isoleucine mutants; experiment: DSF thermal stabilization (FIG. 15); assay type: binding, human; conditions: result in words
Protocol: as §1, §2, §3

Brd2(1)*(Met165-Leu) = target: T5, Brd2(1)*(Met165-Leu) (Homo sapiens, UniProt P25440, M165L); experiment: DSF thermal shift; assay type: binding; conditions: mutant
T5 construct: Plasmids of the eight single BET bromodomain constructs Brd2(1), Brd2(2), Brd3(1), Brd3(2); His6 (N); made in house; host or cells: E. coli BL21(DE3)
T5 sequence (P25440 74-180 M165L limits assumed): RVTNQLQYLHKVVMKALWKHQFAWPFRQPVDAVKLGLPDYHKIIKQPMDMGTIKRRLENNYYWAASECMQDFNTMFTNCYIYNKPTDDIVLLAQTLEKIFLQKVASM
Protocol: (§4) DSF assays were performed on a LightCycler®480 from Roche or a Mx3005P Real Time PCR machine from Stratagene. Prior to DSF assays, frozen proteins were buffer exchanged using Vivaspin®6 concentrators with a 10 kDa cutoff on a Centrifuge 5430 from Eppendorf at a speed of 6000×g to remove glycerol and to buffer the proteins in 20 mM HEPES pH 7.5 at 25° C. and 100 mM NaCl. SYPRO®Orange from Invitrogen Molecular Probes® was used as a reporter dye to monitor the denaturing process of the proteins. Samples were assayed on a 96-well plate with final protein concentrations of 2 μM for the LightCycler®480 and 6 μM for Mx3005P. Compounds were added at a final concentration of 10 μM for the LightCycler®480 and 30 μM for Mx3005P, while the tetra acetylated histone peptide was added to a final concentration of 100 μM and 300 μM respectively. […] The temperature was raised with a step of 0.6° C. per minute from 37° C. to 95° C. with the LightCycler®480 collecting 39 measurements per ° C., and 1° C. per minute from 25° C. to 95° C. with Mx3005P, collecting fluorescence readings at the end of each interval. Each sample was run in triplicates.
as §2, §3

Brd2(2)*(Met438-Ala) = target: T6, Brd2(2)*(Met438-Ala) (Homo sapiens, UniProt P25440, M438A); experiment: DSF thermal shift; assay type: binding; conditions: mutant
T6 construct: Plasmids of the eight single BET bromodomain constructs Brd2(1), Brd2(2), Brd3(1), Brd3(2); His6 (N); made in house; host or cells: E. coli BL21(DE3)
T6 sequence (P25440 344-453 M438A limits assumed): as the sequence (P25440 344-453 limits assumed) above, with M95A counted along it
Protocol: as §4, §2, §3

Brd2(2)*(Met438-Leu) = target: T7, Brd2(2)*(Met438-Leu) (Homo sapiens, UniProt P25440, M438L); experiment: DSF thermal shift; assay type: binding; conditions: mutant
T7 construct: Plasmids of the eight single BET bromodomain constructs Brd2(1), Brd2(2), Brd3(1), Brd3(2); His6 (N); made in house; host or cells: E. coli BL21(DE3)
T7 sequence (P25440 344-453 M438L limits assumed): as the sequence (P25440 344-453 limits assumed) above, with M95L counted along it
Protocol: as §4, §2, §3

Solubility observations = conditions: observation in words
Brd2(1)*(Met165Ala) = Brd2(1)*(Met165Ala) (Homo sapiens, UniProt P25440, M165A); experiment: DSF thermal shift; assay type: binding; parameters: Plasmids of the eight single BET bromodomain constructs Brd2(1), Brd2(2), Brd3(1), Brd3(2); His6 (N); made in house; host or cells: E. coli BL21(DE3); conditions: mutant
Sequence of Brd2(1)*(Met165Ala) (P25440 74-180 M165A limits assumed): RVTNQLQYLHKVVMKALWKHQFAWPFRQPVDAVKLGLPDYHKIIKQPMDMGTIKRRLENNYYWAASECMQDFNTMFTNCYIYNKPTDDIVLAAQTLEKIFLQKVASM
Protocol: as §4, §2, §3

T1 sequence (P25440 74-180 limits assumed): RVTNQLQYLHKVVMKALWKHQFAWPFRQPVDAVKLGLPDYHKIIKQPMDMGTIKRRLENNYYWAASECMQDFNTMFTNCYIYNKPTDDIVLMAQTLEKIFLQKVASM

Row | Compound | Thermal stabilisation brd2(1) (Brd2(1)) [°C] | ΔTm Brd2(1) (Brd2(1)) [K] | Thermal stabilisation brd2(2) (Brd2(2)) [°C] | ΔTm Brd2(2) (Brd2(2)) [K] | Thermal stabilisation brd2(1)L110I (Brd2(1) Leu110-Ile) [°C] | ΔTm Brd2(1)*(Leu110-Ile) (Brd2(1) Leu110-Ile) [K] | Thermal stabilisation brd2(1)L110A (Brd2(1)*(Leu110-Ala)) [°C] | ΔTm Brd2(1)*(Leu110-Ala) (Brd2(1)*(Leu110-Ala)) [K] | Thermal stabilisation brd2(2)V383I (Table 1); Brd2(2) Leu383-Ile (text) (Brd2(2) Leu383-Ile) [°C] | ΔTm Brd2(2)*(Leu383-Ile) (Brd2(2) Leu383-Ile) [K] | Thermal stabilisation brd2(2)L383A (Brd2(2)*(Leu383-Ala)) [°C] | ΔTm Brd2(2)*(Leu383-Ala) (Brd2(2)*(Leu383-Ala)) [K] | ΔTm Brd4(1) (Brd4(1)) [K] | ΔTm Brd4(2) (Brd4(2)) [K] | Thermal stabilization of Brd2 mutants versus wild types (FIG. 15) [1] | ΔTm Brd2(1)*(Met165-Leu) (Brd2(1)*(Met165-Leu)) [K] | ΔTm Brd2(2)*(Met165-Ala) (Brd2(2)*(Met438-Ala)) [K] | ΔTm Brd2(2)*(Met165-Leu) (Brd2(2)*(Met438-Leu)) [K] | Solubility (Solubility observations) | ΔTm Brd2(1)*(Met165-Ala) (Brd2(1)*(Met165Ala)) [K]
1 | COC(=O)CC1(C)N=C(c2ccc(Cl)cc2)c2cc(OC)ccc2-n2c(C)nnc21 (racemic) [Compound 5, (+−)-methyl 2-(6-(4-chlorophenyl)-8-methoxy-1,4-dimethyl-4H-benzo[f][1,2,4]triazolo[4,3-a][1,4]diazepin-4-yl)acetate] | 2.2 ± 0.3 | 2.2 ± 0.3 | 5.3 ± 0.3 | 5.3 ± 0.3 | 3.3 ± 0.4 | 3.3 ± 0.3 | 2.9 ± 0.4 | 2.9 ± 0.4 | 6.8 ± 0.1 | 6.8 ± 0.1 | 6.6 ± 0.4 | 6.6 ± 0.4 | – | – | – | – | – | – | – | –
2 | COC(=O)[C@@H](C)[C@@H]1N=C(c2ccc(Cl)cc2)c2cc(OC)ccc2-n2c(C)nnc21 (racemic) [Compound 6, (+−)-methyl (S)-2-((S)-6-(4-chlorophenyl)-8-methoxy-1-methyl-4H-benzo[f][1,2,4]triazolo[4,3-a][1,4]diazepin-4-yl)propanoate] | −0.3 ± 0.2 | −0.3 ± 0.2 | 0.2 ± 0.2 | 0.2 ± 0.2 | 0.0 ± 0.5 | 0.0 ± 0.5 | 1.6 ± 0.2 | 1.6 ± 0.2 | 0.3 ± 0.2 | 0.3 ± 0.2 | 0.8 ± 0.6 | 0.8 ± 0.6 | – | – | – | – | – | – | – | –
3 | CC[C@H](C(=O)OC)[C@@H]1N=C(c2ccc(Cl)cc2)c2cc(OC)ccc2-n2c(C)nnc21 (racemic) [Compound 14, (+−)-methyl (S)-2-((S)-6-(4-chlorophenyl)-8-methoxy-1-methyl-4H-benzo[f][1,2,4]triazolo[4,3-a][1,4]diazepin-4-yl)butanoate] | – | 1.0 ± 0.3 | – | 0.9 ± 0.4 | – | 0.5 ± 0.0 | – | 1.8 ± 0.4 | – | 0.9 ± 0.3 | – | 2.4 ± 0.6 | 0.5 ± 0.1 | 0.1 ± 0.1 | – | – | – | – | – | –
4 | COC(=O)CC1N=C(c2ccc(Cl)cc2)c2cc(OC)ccc2-n2c(C)nnc21 (racemic) [I-BET-OMe, (+−)-methyl 2-(6-(4-chlorophenyl)-8-methoxy-1-methyl-4H-benzo[f][1,2,4]triazolo[4,3-a][1,4]diazepin-4-yl)acetate, reference compound] | – | – | – | – | – | – | – | – | – | – | – | – | – | – | no selective stabilization of the mutant proteins | – | – | – | – | –
5 | COc1ccc(-c2ccc(S(=O)(=O)Nc3ccc4c(c3)CN(C)C(=O)N4)cc2)cc1 [Compound 50, 4′-methoxy-N-(3-methyl-2-oxo-1,2,3,4-tetrahydroquinazolin-6-yl)-[1,1′-biphenyl]-4-sulfonamide] | – | – | – | 0.7 ± 0.2 | – | – | – | – | – | – | – | – | – | – | – | 1.7 ± 0.1 | 4.1 ± 0.1 | 3.8 ± 0.2 | solubility of the compound decreased | 5.3 ± 0.3
6 | Cc1cccc(S(=O)(=O)Nc2ccc3c(c2)CN(C)C(=O)N3)c1 [Compound 53, 3-methyl-N-(3-methyl-2-oxo-1,2,3,4-tetrahydroquinazolin-6-yl)benzenesulfonamide] | – | 0.0 ± 0.3 | – | 0.7 ± 0.1 | – | – | – | – | – | – | – | – | – | – | – | 0.0 ± 0.1 | 0.0 ± 0.1 | 0.0 ± 0.0 | low solubility | 0.0 ± 0.1
